# Results published in US20240382556A1, “METHODS AND COMPOSITIONS FOR THE TREATMENT OF ALCOHOL DEPENDENCE” (Duke University, priority 2023, published 2024).
# Residues, ends and D or L forms follow the SMILES beside them.
# How the values were obtained:
# Adult male C57/B16J mice = assay: Drinking in the Dark (DID) mouse model of binge drinking behavior; assay type: in vivo
# Description: To measure binge drinking behavior, experiments were conducted that used the Drinking in the Dark (DID) model as previously published (see, Thiele T E, Crabbe J C, Boehm S L, 2nd (2014): “Drinking in the Dark” (DID): a simple mouse model of binge-like alcohol intake. Curr Protoc Neurosci. 68: 9 49 41-49 49 12). Adult male C57/B16J mice on reverse light-dark cycle had water replaced with alcohol three hours into the dark cycle. On days 1-3 of each week (Mon-Wed), mice received 20% alcohol for 2 hrs and on day 4 (Thur) received for 4 hours.
# Mice were treated with Rapastinel at dose of 30 mg/kg or saline via intraperitoneal injection (i.p.) 30 minutes prior to alcohol exposure on days 1-4 of cycle either during first cycle of DID or after first undergoing DID for 5 weeks prior to treatment on week 6 (see, FIG. 1).
# animal models = conditions: unlike ketamine, Moskal et al. 2017; cited from earlier work
# [1] = system: preclinical rodent models; conditions: previously shown; cited from earlier work
structure (smiles),measurement,setting,value
"C[C@@H](O)[C@H](N)C(=O)N1CCC[C@H]1C(=O)N1CCC[C@H]1C(=O)N[C@H](C(N)=O)[C@@H](C)O [Rapastinel, L-threonyl-L-prolyl-L-prolyl-L-threoninamide] (H-TPPT-NH2)",alcohol consumption (daily and total) compared to saline control,"Adult male C57/B16J mice; alcohol naïve mice, 1 cycle of DID, daily i.p. injection of 30 mg/kg prior to presentation of alcohol",no effect
same,"Total average weekly alcohol consumption, week 6 with treatment in comparison to weeks 1-5","Adult male C57/B16J mice; mice after 5 weeks of DID, 30 mg/kg i.p. 30 minutes prior to alcohol on days 1-4 of week 6, with and without removal of outliers (>90%)",reduced alcohol consumption
same,negative side effects during treatment,animal models,has not been shown to produce any negative side effects
same,cravings for opiates,[1],effective in reducing cravings for opiates
